Each structure is given as a SMILES string. Where “and” joins values, the source holds several entries; their conditions need not be identical. Equal entries are not always repeated.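 Method: 48-hour compound exposure of cells in 96-well plates, five concentrations, linear interpolation of endpoints. At the GI50, growth is halved. Definition used: TGI = concentration required for complete inhibition of growth.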 *1 amine or outer side, *2 acyl side, *3 side chain or, on linkers, in order; H or OH if unused. Where a SMILES comes first, the peptide text is derived from it. Bridges are numbered along the chain shown (N, C = ends). [ ]: non-standard residue; d: D form. The star is where a group is joined. Phe(3-Me) = Cc1cccc(C[C@H](N)C(=O)O)c1; NH(4-Cl-2-F-phenyl) = Fc1cc(Cl)ccc1N*; Pro(4R-Me) = C[C@H]1CN[C@H](C(=O)O)C1; Hyp = O=C(O)[C@@H]1C[C@@H](O)CN1; aThr = C[C@H](O)[C@H](N)C(=O)O; Pip = O=C(O)[C@@H]1CCCCN1; CO = O=C([*:1])[*:2]

The subject of this test is MDA-MB-468 breast. In words: NCI-60 cell line screen, 48 h.
Take `COc1ccc(C(=O)/C=C/c2cc(C(=O)c3cc(OC)c(OC)c(OC)c3)ccc2OC)cc1`: the GI50 is 3030 nM and the TGI was > 100000 nM. Consider `N#CSCC1CC(O)(c2ccccc2)C(c2ccccc2)C(c2ccc(F)cc2)O1` (configuration not stated), for which the GI50 was 3510 nM and the TGI was 13100 nM. Turning to `O=C(Nc1ccc(Nc2ccncc2)cc1)c1ccc(Nc2ccnc3ccc([N+](=O)[O-])cc23)cc1`, the GI50 was > 100000 nM and the TGI was > 100000 nM. On to `O=C1CNc2cc(N3CCN(c4cccc(C(F)(F)F)c4)CC3)ccc2N1`, for which the GI50 was 4920 nM and the TGI was 43600 nM.

Turning to `CC1(C)N=C(N)N=C(N)N1c1cccc(CCCCc2ccc(S(=O)(=O)F)cc2Cl)c1`, the GI50 is 2130 nM and the TGI was 18800 nM. For `CSc1ccc(/C(=N/N=C(N)N)c2ccc(F)cc2)cc1`, in that order: 398 nM and 2130 nM.

For `O=C1C(Cl)=C(N2CCOCC2)C(=O)c2ccccc21`, the GI50 is 1440 nM and the TGI was 2940 nM. For `COc1ccc(C2c3cc4c(cc3OC(N3CCOCC3)C2C)OCO4)c(OC)c1` (configuration not stated), in that order: 7180 nM and 32000 nM.

In the case of `Cc1ccc(C(=O)N/N=C/c2cccc(Oc3ccccc3)c2)cn1`, the GI50 is 4430 nM and the TGI was > 34900 nM.

Consider `COc1ccc(C2=C(c3cn(C)c4ccccc34)C(=O)NC2=O)cc1OC`, for which the GI50 is 5860 nM and the TGI is > 25000 nM. For `CN1CCN(Cc2ccc(NC(=O)c3[nH]ncc3Nc3ncnc4c3CCC4)cc2)CC1`, in that order: 2000 nM and 5840 nM. For the compound `O=C(c1cc(-c2cc3c(cc2C(=O)N2Cc4ccccc4C[C@H]2CN2CCOCC2)OCO3)n2c1CCCC2)N(c1ccccc1)c1ccc(O)cc1`, the GI50 is 3070 nM and the TGI worked out at 96200 nM. Consider `Cc1ccc(NS(=O)(=O)c2cc(C)ccc2C)cc1`, for which the GI50 was 1420 nM and the TGI amounted to 7280 nM.

Regarding `Nc1ncc(-c2ccc(C(F)(F)F)cc2)c(NC2CCCCCC2)n1`, the GI50 was 4150 nM and the TGI was > 100000 nM.

`O=C(N/N=C/c1ccc(O)cc1O)c1ccc(Nc2ccnc(C(F)(F)F)c2)cc1`: the GI50 was 15200 nM and the TGI is > 100000 nM. For `COc1ccc(C(=O)c2cc(OC)c(OC)c(OC)c2)cc1O`, in that order: 239 nM and 779 nM. For `Cc1nc(Nc2ccc(F)c(Cl)c2)sc1C(=O)O`, in that order: 1200 nM and 3790 nM. Turning to `Cc1nn2c(/C=C3/C(=O)Nc4ccc(Cl)cc43)c(-c3ccccc3)nc2s1`, the GI50 is 3470 nM and the TGI worked out at 14700 nM. `O=C(NNc1nc2cc(F)c(F)cc2n2c(CN3CC4CNCC4C3)ccc12)c1ncccn1` (configuration not stated): the GI50 was 2040 nM and the TGI is 9820 nM.

Turning to `CO/N=C1/NC(=O)/C(=C/c2ccc3ncccc3c2)S1`, the GI50 is 4910 nM and the TGI was > 25000 nM. As for `O=[N+]([O-])c1cc(Br)cc2c1[nH]c1ccc(Br)cc12`, the GI50 is 7520 nM and the TGI stood at 79700 nM. For `Cc1c(Cl)cccc1NC(=O)c1sc2nc3c(cc2c1N)CCCCCC3`, in that order: 130 nM and 19900 nM.

`COc1ccc(Cn2cc3c(c2-c2cc(OC)c(OC)c(OC)c2)CCc2c(CN4CCCC4)noc2-3)cc1`: the GI50 was 280 nM and the TGI stood at 966 nM.

On to `Cc1cc2c(C(N)=O)cccc2n1-c1nc2c(c(NCc3ccccc3)n1)CCCN2`, for which the GI50 is 223 nM and the TGI came out at 477 nM. For `COc1cccc(/C=C/C(=O)c2cc3c(N)c(C(=O)Nc4cccc(Cl)c4C)sc3nc2C)c1`, in that order: 778 nM and 1820 nM.

On to `Cc1cccc(C[C@H](NC(=O)Nc2ccc(Cl)cc2F)C(=O)N[C@@H]2C(=O)N3C[C@H](O)C[C@H]3C(=O)N3CCCC[C@H]3C(=O)N[C@@H](C)C(=O)N3C[C@H](C)C[C@H]3C(=O)O[C@H]2C)c1` ({NH(4-Cl-2-F-phenyl)-CO}-[Phe(3-Me)][aThr][Hyp][Pip]A[Pro(4R-Me)]; ester 2-C), for which the GI50 was 253 nM and the TGI stood at 1030 nM. For `CCOc1cc2ncc(C#N)c(Nc3ccc(F)c(Cl)c3)c2cc1NC(=O)/C=C/CN(C)C`, the GI50 was 2.38 nM and the TGI stood at 35.1 nM. For `C#CC[C@H](c1nc2cc(Cl)ccc2c(=O)n1Nc1ccccc1)N(CCCN)C(=O)c1cccc(Cl)c1F`, in that order: 42.1 nM and 755 nM. Turning to `O=C1Nc2cc(OC(F)(F)F)ccc2Oc2ccc(-c3ccnc(N4CCNCC4)c3)cc21`, the GI50 was 394 nM and the TGI came out at 1460 nM. In the case of `C[C@@H]1CCN(C(=O)CC#N)C[C@@H]1N(C)c1ncnc2[nH]ccc12`, the GI50 is > 100000 nM and the TGI is > 100000 nM.

For `O=C(O)c1ccc(NS(=O)(=O)c2cccc3cccnc23)cc1`, the GI50 was > 100000 nM and the TGI was > 100000 nM.

As to `Cc1c(CN2CCC(Nc3ncnc4sc(CC(F)(F)F)cc34)CC2)ccc2c1cc(C#N)n2Cc1cn[nH]c1`, the GI50 was 842 nM and 781 nM; the TGI is 3820 nM and 6250 nM. Consider `CCN(CC)CCCC(C)Nc1cnc(C(=O)Nc2cc(F)cc3cccnc23)cn1` (configuration not stated), for which the GI50 was 2830 nM and 327 nM.

Take `Cc1nc(NC(=S)Nc2ccc(F)cc2)sc1C(=O)NNC(=S)Nc1ccc(F)cc1`: the GI50 was 2220 nM and the TGI amounted to 9530 nM.

On to `O=c1[nH]nc2c3c(cccc13)NC(CN1Cc3ccccc3C1)=N2`, for which the GI50 was 7920 nM and the TGI was > 100000 nM.

Consider `CCc1ccc(CCC(=O)Nc2ncc(Cc3ccccc3)s2)o1`, for which the GI50 is 1550 nM and the TGI was > 100000 nM.

As to `c1cncc(CNc2ccccc2-c2nnc(Nc3ccc4c(c3)OCCO4)o2)c1`, the GI50 was 218 nM and the TGI is 821 nM.

Regarding `COc1ccc(/C=C(\C#N)c2cc(OC)c3c(c2)OCO3)cc1`, the GI50 was 17.3 nM and the TGI is 150 nM.

As for `CN(C)CC#Cc1cccc(C(=O)c2cnn(-c3ccc(F)cc3)c2N)c1`, the GI50 was 13300 nM and the TGI was > 25000 nM. As for `COc1cc(-c2cc(-c3nc4ccccc4[nH]3)[nH]n2)cc(OC)c1OC`, the GI50 was 935 nM and the TGI was 16600 nM. For `COC[C@H]1OC(=O)c2coc3c2[C@@]1(C)C1=C(C3=O)[C@@H]2CCC(=O)[C@@]2(C)C[C@H]1OC(C)=O`, in that order: 421 nM and 4620 nM.

Turning to `O=C(Nc1ccncc1)C(=O)c1cn(S(=O)(=O)c2ccccc2F)c2ccccc12`, the GI50 was 1510 nM and the TGI turned out to be 9810 nM. For `CCC(C)/C=C(C)/C=C/C(=O)c1c(O)c(-c2ccc(O)cc2)c[nH]c1=O` (configuration not stated), in that order: 1870 nM and 7760 nM. For `CCc1nc2ccc(Cc3ccc(C(=O)NO)cc3)cc2c(=O)n1CCc1ccccc1`, in that order: 740 nM and 2970 nM. Consider `CCS(=O)(=O)c1ccc(OC)c(Nc2nccc(N(C)c3ccc4c(C)[nH]nc4c3)n2)c1`, for which the GI50 was 3480 nM and the TGI came to 9320 nM. Take `Cn1c2ccccc2c2nnc(N/N=C/c3ccccn3)nc21`: the GI50 was 293 nM. On to `O=C(CNC(=O)c1cccc2ccccc12)Nc1ccccc1Oc1ccccc1`, for which the GI50 is 325 nM and the TGI turned out to be 5900 nM.

The values are drawn from PubChem BioAssay (NCI).
